Values joined by “and” are separate entries in the source; they are usually repeats but may differ in a detail not shown here. Equal values may be shown once. Read-outs that look alike come from different tables or passages of the source.
Target: T1, MRGPRX4 (Homo sapiens, UniProt Q96LA9)
T1 construct: expressed in transfected cells; host or cells: HEK293T
Assay: IP1 accumulation HTRF assay, MRGPRX4
Format: cell-based
Parameters: key to IP1 Basal / IP1 accumulation with YM (Figure 1c) / response to agonist, MRGPRX4 / IP1 accumulation: % IP1: unstimulated mock-transfected = 0%, fully stimulated MRGPRX4 = 100%

T1 sequence (Q96LA9 whole entry): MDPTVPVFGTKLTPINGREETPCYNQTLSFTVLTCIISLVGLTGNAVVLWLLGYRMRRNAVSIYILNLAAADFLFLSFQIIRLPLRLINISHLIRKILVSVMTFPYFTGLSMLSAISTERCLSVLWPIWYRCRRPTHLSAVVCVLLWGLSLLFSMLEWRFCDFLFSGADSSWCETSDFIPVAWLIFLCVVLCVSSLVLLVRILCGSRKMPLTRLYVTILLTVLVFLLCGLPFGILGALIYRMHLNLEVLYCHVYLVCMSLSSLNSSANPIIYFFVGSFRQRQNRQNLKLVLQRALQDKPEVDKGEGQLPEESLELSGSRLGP

With `CC(C)[C@H]1CC[C@H](C(=O)N[C@H](Cc2ccccc2)C(=O)O)CC1` [Nateglinide] the EC50 (MRGPRX4 0.25 pg DNA/cell, individual experiments, read-out: potency (Figure 1b top) (converted)) was 13.5 µM (2×) and 12.5 µM, the Emax (MRGPRX4 0.5 pg DNA/cell, individual experiments, read-out: efficacy (Figure 1b bottom)) was 95.7% and the EC50 (MRGPRX4 0.5 pg DNA/cell, individual experiments, read-out: potency (Figure 1b top) (converted)) was 12.3 µM and 9.23 µM. For the same compound, the Emax (MRGPRX4 1 pg DNA/cell, individual experiments, read-out: efficacy (Figure 1b bottom)) was 104%, the EC50 (MRGPRX4 1 pg DNA/cell, individual experiments, read-out: potency (Figure 1b top) (converted)) was 10.9 µM and 9.68 µM and 8.2 µM and the Emax (MRGPRX4 2 pg DNA/cell, individual experiments, read-out: efficacy (Figure 1b bottom)) was 97.2%. The EC50 (MRGPRX4 2 pg DNA/cell, individual experiments, read-out: potency (Figure 1b top) (converted)) was 6.87 µM and 6.27 µM and 6.64 µM, the “IP1 Basal” value (MRGPRX4 (Fig. 1A), HEK293T, normalized to 100 μM nateglinide) was 14.95 and the EC50 (MRGPRX4 (Fig. 1A), HEK293T, normalized to 100 μM nateglinide, read-out: IP1 EC50) was 10.7 µM. The EC50 (MRGPRX4, HEK293T (Fig. 1A), read-out: EC50 concentration, IP1 accumulation) was 10.6 µM, the IP1 accumulation (MRGPRX4: 2pg/cell, log [Nateglinide] (M) -4, Fig S1b/c) was 100 and the IP1 accumulation (MRGPRX4: 2pg/cell, log [Nateglinide] (M) -4.69897, Fig S1b/c) was 88.6878 and 83.9734. The IP1 accumulation (MRGPRX4: 2pg/cell, log [Nateglinide] (M) -5.39794, Fig S1b/c) was 45.9251 and 47.3838, the IP1 accumulation (MRGPRX4: 2pg/cell, log [Nateglinide] (M) -6.09691, Fig S1b/c) was 18.7171 and 20.7267 and the IP1 accumulation (MRGPRX4: 2pg/cell, log [Nateglinide] (M) -6.79588, Fig S1b/c) was 11.3987 and 15.6075. For the same compound, the IP1 accumulation (MRGPRX4: 2pg/cell, log [Nateglinide] (M) -7.49485, Fig S1b/c) was 10.9025 and 14.1936, the “IP1 Basal” value (MRGPRX4 DNA 0.25 pg/cell (Fig. S1)) was 4.926 and the EC50 (MRGPRX4 DNA 0.25 pg/cell (Fig. S1), read-out: IP1 EC50) was 13.6 µM. The Emax (MRGPRX4 DNA 0.25 pg/cell (Fig. S1), read-out: IP1 Emax) was 84.4%, the Emax (MRGPRX4 DNA 0.25 pg/cell (Fig. S1), read-out: IP1 span) was 79.5% and the “IP1 Basal” value (MRGPRX4 DNA 0.5 pg/cell (Fig. S1)) was 6.421. For the same compound, the EC50 (MRGPRX4 DNA 0.5 pg/cell (Fig. S1), read-out: IP1 EC50) was 11 µM, the Emax (MRGPRX4 DNA 0.5 pg/cell (Fig. S1), read-out: IP1 Emax) was 97.5% and the Emax (MRGPRX4 DNA 0.5 pg/cell (Fig. S1), read-out: IP1 span) was 91%. For the same compound, the “IP1 Basal” value (MRGPRX4 DNA 1 pg/cell (Fig. S1)) was 9.219, the EC50 (MRGPRX4 DNA 1 pg/cell (Fig. S1), read-out: IP1 EC50) was 9.79 µM and the Emax (MRGPRX4 DNA 1 pg/cell (Fig. S1), read-out: IP1 Emax) was 106%. For the same compound, the Emax (MRGPRX4 DNA 1 pg/cell (Fig. S1), read-out: IP1 span) was 96.7%, the “IP1 Basal” value (MRGPRX4 DNA 2 pg/cell (Fig. S1)) was 11.77 and the EC50 (MRGPRX4 DNA 2 pg/cell (Fig. S1), read-out: IP1 EC50) was 6.8 µM. It also gave an Emax (MRGPRX4 DNA 2 pg/cell (Fig. S1), read-out: IP1 Emax) of 108%, an Emax (MRGPRX4 DNA 2 pg/cell (Fig. S1), read-out: IP1 span) of 96.3% and an EC50 (MRGPRX4 DNA […] (Fig. S1), read-out: IP1 EC50) of 13.9 µM. The Emax (MRGPRX4 DNA […] (Fig. S1), read-out: IP1 Emax) was 74.8%, the Emax (MRGPRX4 DNA […] (Fig. S1), read-out: IP1 span) was 72.2% and the IP1 accumulation (MRGPRX4 alone, log [Nateglinide] (M) -4.69897, Fig S3a-c) was 73.8798 and 88.0796. For the same compound, the IP1 accumulation (MRGPRX4 alone, log [Nateglinide] (M) -5.39794, Fig S3a-c) was 42.3002 and 52.0108, the IP1 accumulation (MRGPRX4 alone, log [Nateglinide] (M) -6.09691, Fig S3a-c) was 21.697 and 30.974 and the IP1 accumulation (MRGPRX4 alone, log [Nateglinide] (M) -6.79588, Fig S3a-c) was 15.7135 and 25.7363. For the same compound, the IP1 accumulation (MRGPRX4 alone, log [Nateglinide] (M) -7.49485, Fig S3a-c) was 14.3426 and 24.4649, the “normalized IP1 accumulation” value (SP-FLAG-Nluc-HT7-MRGX4_Tet-GFP10-1D4, log [agonist] (M) -4.09691) was 53.7873 and 50.7716 and the “normalized IP1 accumulation” value (SP-FLAG-Nluc-HT7-MRGX4_Tet-GFP10-1D4, log [agonist] (M) -4.79588) was 39.105 and 47.513. For the same compound, the “normalized IP1 accumulation” value (SP-FLAG-Nluc-HT7-MRGX4_Tet-GFP10-1D4, log [agonist] (M) -5.49485) was 24.2093 and 23.5323, the “normalized IP1 accumulation” value (SP-FLAG-Nluc-HT7-MRGX4_Tet-GFP10-1D4, log [agonist] (M) -6.19382) was 9.755 and 12.1626 and the “normalized IP1 accumulation” value (SP-FLAG-Nluc-HT7-MRGX4_Tet-GFP10-1D4, log [agonist] (M) -6.89279) was 9.31 and 10.6126. For the same compound, the “normalized IP1 accumulation” value (SP-FLAG-Nluc-HT7-MRGX4_Tet-GFP10-1D4, log [agonist] (M) -7.59176) was 10.0922 and 8.039, the “normalized IP1 accumulation” value (SP-FLAG-Nluc-HT7-MRGX4_Tet-GFP10-1D4 no dox, log [agonist] (M) -4.79588) was 9.836 and 10.4491 and the “normalized IP1 accumulation” value (SP-FLAG-Nluc-HT7-MRGX4_Tet-GFP10-1D4 no dox, log [agonist] (M) -5.49485) was 7.573 and 7.949. The “normalized IP1 accumulation” value (SP-FLAG-Nluc-HT7-MRGX4_Tet-GFP10-1D4 no dox, log [agonist] (M) -6.19382) was 7.652 and 7.516, the “normalized IP1 accumulation” value (SP-FLAG-Nluc-HT7-MRGX4_Tet-GFP10-1D4 no dox, log [agonist] (M) -6.89279) was 8.115 and 7.953 and the “normalized IP1 accumulation” value (SP-FLAG-Nluc-HT7-MRGX4_Tet-GFP10-1D4 no dox, log [agonist] (M) -7.59176) was 8.427 and 8.747. For the same compound, the “normalized IP1 accumulation” value (SP-Flag-MRGX4-1D4, log [agonist] (M) -4) was 90.7901 and 99.3577, the “normalized IP1 accumulation” value (SP-Flag-MRGX4-1D4, log [agonist] (M) -4.69897) was 68.6541 and 83.0667 and the “normalized IP1 accumulation” value (SP-Flag-MRGX4-1D4, log [agonist] (M) -5.39794) was 34.48 and 31.1467. The “normalized IP1 accumulation” value (SP-Flag-MRGX4-1D4, log [agonist] (M) -6.09691) was 13.1213 and 14.7496, the “normalized IP1 accumulation” value (SP-Flag-MRGX4-1D4, log [agonist] (M) -6.79588) was 9.479 and 9.146 and the “normalized IP1 accumulation” value (SP-Flag-MRGX4-1D4, log [agonist] (M) -7.49485) was 7.648 and 7.711. The “normalized IP1 accumulation” value (SP-Flag-MRGX4-GFP10-1D4, log [agonist] (M) -4.69897) was 81.9562 and 74.6812, the “normalized IP1 accumulation” value (SP-Flag-MRGX4-GFP10-1D4, log [agonist] (M) -5.39794) was 38.7817 and 35.4094 and the “normalized IP1 accumulation” value (SP-Flag-MRGX4-GFP10-1D4, log [agonist] (M) -6.09691) was 15.3576 and 16.0977. For the same compound, the “normalized IP1 accumulation” value (SP-Flag-MRGX4-GFP10-1D4, log [agonist] (M) -6.79588) was 8.66 and 9.498, the “normalized IP1 accumulation” value (SP-Flag-MRGX4-GFP10-1D4, log [agonist] (M) -7.49485) was 9.929 and 8.168 and the “IP1 Basal” value (Tet-On MRGPRX4 1pg/cell, Dox 13 ng/mL (Fig. S5B)) was -3.433. It also gave an EC50 (Tet-On MRGPRX4 1pg/cell, Dox 13 ng/mL (Fig. S5B), read-out: IP1 EC50) of 19.2 µM, an Emax (Tet-On MRGPRX4 1pg/cell, Dox 13 ng/mL (Fig. S5B), read-out: IP1 Emax) of 17.4% and an Emax (Tet-On MRGPRX4 1pg/cell, Dox 13 ng/mL (Fig. S5B), read-out: IP1 span) of 20.8%. For the same compound, the “IP1 Basal” value (Tet-On MRGPRX4 1pg/cell, Dox 40 ng/mL (Fig. S5B)) was -3.380, the EC50 (Tet-On MRGPRX4 1pg/cell, Dox 40 ng/mL (Fig. S5B), read-out: IP1 EC50) was 13.7 µM and the Emax (Tet-On MRGPRX4 1pg/cell, Dox 40 ng/mL (Fig. S5B), read-out: IP1 Emax) was 18.8%. For the same compound, the Emax (Tet-On MRGPRX4 1pg/cell, Dox 40 ng/mL (Fig. S5B), read-out: IP1 span) was 22.1%, the “IP1 Basal” value (Tet-On MRGPRX4 1pg/cell, Dox 1100 ng/mL (Fig. S5B)) was -3.039 and the EC50 (Tet-On MRGPRX4 1pg/cell, Dox 1100 ng/mL (Fig. S5B), read-out: IP1 EC50) was 10.8 µM. For the same compound, the Emax (Tet-On MRGPRX4 1pg/cell, Dox 1100 ng/mL (Fig. S5B), read-out: IP1 Emax) was 30.6%, the Emax (Tet-On MRGPRX4 1pg/cell, Dox 1100 ng/mL (Fig. S5B), read-out: IP1 span) was 33.7% and the “IP1 Basal” value (Tet-On MRGPRX4 1pg/cell, Dox 3300 ng/mL (Fig. S5B)) was -1.008.
